Results from patent US5444042A, “Method of treatment of neurodegeneration with calpain inhibitors” (Cortex Pharmaceuticals, priority 1994, dated 1995).
Where a SMILES comes first, the peptide text is derived from it. The star is where a group is joined. CH2Cl = ClC*

Key:
[1] = target: Calpain II; test: Calpain II KI (Table 1B(ii)); type: biochemical
Source text: (§1) We tested the ability of an additional group of Peptide Keto-Compounds to inhibit several proteases in order to evaluate their specificity for Calpain.

[2] = Stability in plasma; type: in vitro ADME; conditions: unit assumed
Source text: We determined the haft-life of several Peptide Keto-Compounds in both plasma and liver homogenates.

[3] = target: Chym (Bos taurus, UniProt P00766); test: Chym KI (Table 1B(ii)); type: biochemical
Source text: as §1

[4] = target: PP Elastase (Sus scrofa, UniProt P00772); test: PP Elastase KI (Table 1B(ii)); type: biochemical
Source text: as §1

[5] = tested on: Calpain within platelets; test: Platelet membrane permeation assay, spectrin proteolysis (Examples 4A, 4B); type: cell-based, rat; conditions: for inhibition of Calpain within platelets: A23187 1 μM; for IC50: concentration at which 50% of the Calpain activation present in controls occurred
Method: Platelets were isolated by a modification of the method of Ferrell and Martin, J Biol. Chem., 264:20723-20729 (1989), the disclosure of which is hereby incorporated by reference. Blood (15-20 ml) was drawn from male Sprague-Dawley rats into 100 mM EDTA-citrate containing 10 units heparin, and centrifuged 30 minutes at 1600 rpm at room temperature. The plasma was resuspended in 15 ml buffer 1 (136 mM NaCl, 2.7 mM KCl, 0.42 mM NaH2 PO4, 12 mM NaHCO3, 2 mM MgCl2, 2 mg/ml BSA (Sigma), 5.6 mM glucose, 22 mM Na3 Citrate pH 6.5) and platelets were isolated at 2200 rpm at room temperature of 25 minutes. Platelets were resuspended to 10^7 cells/ml in buffer 2 (136 mM NaCl, 2.7 mM KCl, 0.42 NaH2 PO4, 12 mM NaHCO3, 2 mM MgCl, 1 mg/ml BSA, 5.6 mM glucose, 20 mM HEPES pH 7.4) and allowed to "rest" for a minimum of 10 minutes at room temperature before use.
Platelets were incubated for 5 minutes in the presence of inhibitor. In order to provide sufficient intracellular calcium to activate Calpain, the calcium ionophore A23187 was added to a final concentration of 1 μM. After a further 5 minute incubation, the platelets were harvested by centrifugation (1 min 10,000×g) and resuspended in 10% sodium dodecyl sulfate, 10 mM Tris pH=8.0, 5% β-mercaptoethanol, 0.02% bromophenol blue, and heated to 95° C. for 5 min. Samples were subjected to SDS-PAGE on 6% mini gels and transferred to nitrocellulose (Schleicher and Schuell BAS3) for 2 hours at 100 mA/gel in an LKB Novablot. Filters were blocked for 10 minutes in 0.25% gelatin, 1% BSA, 0.25% Triton X100, 0.9% NaCl, 10 mM Tris-Cl pH 7.5, incubated overnight in the same solution containing antibody to rat spectrin, washed 3×10 minutes with 10 mM Tris-Cl pH 7.5, 0.5 % Triton X100, incubated 4 hours in wash buffer plus alkaline phosphatase conjugated goat anti-rabbit antibody (Biorad), and washed as above. Filters were developed using the Biorad AP conjugate substrate kit. Spectrin immunoreactivity on the filters was quantitated by densitometry.

[6] = tested on: Calpain in crude brain extracts; test: Ca2+-stimulated spectrin proteolysis in crude brain extracts (Example 2); type: biochemical; conditions: 100 μM
Method: The activity of Calpain in crude brain extracts was measured by examining the Ca^2+ -stimulated proteolysis of the endogenous substrate spectrin. Brain tissue was homogenized in 10 mM Tris pH=7.4, 0.32M sucrose, 1 mM EGTA, 1 mM dithiothreitol and the nuclei and debris removed by low speed centrifugation. […] Proteolysis of spectrin was evaluated by western blot as described by Seubert, et at. (Brain Research, 459:226-232, 1988), the disclosure of which is hereby incorporated by reference. Briefly, a known quantity of a spectrin-containing sample treated with Calpain is separated by SDS-PAGE and immunoblotted with anti-spectrin antibody. The amount of spectrin immunoreactivity found corresponding to the characteristic BDP's is indicative of the amount of […] activity present in the sample. An examplary method for quantitating BDP's is to assay Spectrin BDP's by homogenizing brain parts in 20 mM Tris pH=7.2, 0.32M sucrose, 50 μM Ac-Leu-Leu-nLeu-H on ice. Homogenates are then mixed 1:1 with 10% SDS, 5% β-mercaptoethanol, 10% glycerol, 10 mM Tris pH=8.0, 0.5% bromophenolblue, heated to 95° C., and subjected to electrophoresis in 41/2% polyacrylamide gels. The proteins in the gels are transferred to nitrocellulose and the spectrin and BDP's detected using a rabbit polyclonal anti-spectrin antibody and established immunodetection methods. The amount of spectrin and BDP's in each sample can be quantitated by densitrometric scanning of the developed nitrocellulose.

[7] = target: Cathepsin B (Bos taurus, UniProt P07688); test: Cathepsin B KI (Table 1B(ii)); type: biochemical; conditions: read-out: KI CathB
Source text: as §1

[8] = target: T1, Calpain I (Homo sapiens, UniProt P07384); test: Calpain I KI (Table 1B(ii)); type: biochemical; conditions: Table 1B(ii)
T1 sequence (P07384 1-714): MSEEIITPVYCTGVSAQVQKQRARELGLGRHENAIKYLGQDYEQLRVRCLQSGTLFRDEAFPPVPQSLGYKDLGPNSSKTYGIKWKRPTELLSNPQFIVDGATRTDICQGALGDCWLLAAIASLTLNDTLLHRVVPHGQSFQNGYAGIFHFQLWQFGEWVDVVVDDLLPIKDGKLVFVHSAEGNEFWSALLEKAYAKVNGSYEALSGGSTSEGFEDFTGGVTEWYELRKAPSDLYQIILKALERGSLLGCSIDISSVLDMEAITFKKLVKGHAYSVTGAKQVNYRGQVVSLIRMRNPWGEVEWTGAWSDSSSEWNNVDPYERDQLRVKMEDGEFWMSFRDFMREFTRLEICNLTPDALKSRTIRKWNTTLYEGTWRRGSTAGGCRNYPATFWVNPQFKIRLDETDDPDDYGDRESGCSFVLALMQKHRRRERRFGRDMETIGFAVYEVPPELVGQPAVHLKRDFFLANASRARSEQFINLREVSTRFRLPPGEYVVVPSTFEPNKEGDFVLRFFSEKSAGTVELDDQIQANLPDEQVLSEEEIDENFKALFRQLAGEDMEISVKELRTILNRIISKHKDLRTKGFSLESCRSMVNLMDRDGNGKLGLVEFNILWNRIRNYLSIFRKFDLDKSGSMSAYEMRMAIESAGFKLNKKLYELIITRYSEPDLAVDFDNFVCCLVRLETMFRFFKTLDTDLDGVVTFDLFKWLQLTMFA
T1 sequence (P04632 1-268 partner): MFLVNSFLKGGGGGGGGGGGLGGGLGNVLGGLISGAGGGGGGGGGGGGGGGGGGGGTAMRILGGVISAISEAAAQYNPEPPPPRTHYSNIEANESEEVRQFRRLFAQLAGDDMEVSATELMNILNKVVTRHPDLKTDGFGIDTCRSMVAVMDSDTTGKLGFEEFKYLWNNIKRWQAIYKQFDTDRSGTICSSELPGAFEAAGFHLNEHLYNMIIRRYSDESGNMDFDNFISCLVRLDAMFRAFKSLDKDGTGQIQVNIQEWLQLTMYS
Source text: as §1

Sequence of PP Elastase (P00772 27-266): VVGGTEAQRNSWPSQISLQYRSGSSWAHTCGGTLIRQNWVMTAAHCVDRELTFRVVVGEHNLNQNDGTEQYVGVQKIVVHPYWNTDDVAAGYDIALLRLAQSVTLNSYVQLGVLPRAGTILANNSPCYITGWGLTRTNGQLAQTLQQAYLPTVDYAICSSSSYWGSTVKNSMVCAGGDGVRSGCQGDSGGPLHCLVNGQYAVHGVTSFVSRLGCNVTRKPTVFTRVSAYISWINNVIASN

Row | Ki [1] [µM] | Compound | inhibition of Calpain within platelets ([5]; 100 μM) | inhibition of spectrin proteolysis in crude brain extracts [6] | also measured
1 | 0.09 | CCOC(=O)C(=O)[C@H](CC)NC(=O)[C@H](CC(C)C)NC(=O)[C@H](CC(C)C)NC(=O)c1ccc2ccccc2c1 [2-NapCO-Leu-Leu-Abu-COOEt] | – | – | t1/2 plasma [2]: 0.417 h; Ki [3]: > 300 µM; Ki [4]: 28 µM
2 | – | CCOC(=O)C(=O)C(CC)NC(=O)C(CC(C)C)NS(=O)(=O)c1ccc2ccccc2c1 (stereo not drawn) [2-NapSO2 -Leu-Abu-COOEt] | significant inhibition | – | –
3 | – | O=c1oc(Cl)c(Cl)c2ccccc12 [3,4-dichloroisocoumarin, reference compound] | – | significant inhibition | –
4 | – | O=c1oc(OCc2ccccc2)c(Cl)c2ccccc12 [3-benzyloxy-4-chloroisocoumarin] | – | significant inhibition | –
5 | – | O=c1oc(Cl)cc2ccccc12 [3-chloroisocoumarin, reference compound] | significant inhibition | significant inhibition | –
6 | – | N=C(N)SCCCOc1oc(=O)c2cc(NC(=O)CCc3ccccc3)ccc2c1Cl [7-(3-phenylpropionylamino)-4-chloro-3-(3-isothiureidopropoxy)isocoumarin] | significant inhibition | significant inhibition | –
7 | – | CCCOc1oc(=O)c2cc(NC(C)=O)ccc2c1Cl [7-(acetylamino)-4-chloro-3-(propoxy)-isocoumarin] | – | significant inhibition | –
8 | – | N=C(N)SCCCOc1oc(=O)c2cc(NC(=O)Cc3ccccc3)ccc2c1Cl [7-(phenylacetylamino)-4-chloro-3-(3-isothiureidopropoxy)isocoumarin] | significant inhibition | significant inhibition | –
9 | – | N=C(N)SCCOc1oc(=O)c2cc(NC(=O)Nc3ccccc3)ccc2c1Cl [7-(phenylcarbamoylamino)-4-chloro-3-(2-isothiureidoethoxy)isocoumarin] | significant inhibition | significant inhibition | –
10 | – | N=C(N)SCCCOc1oc(=O)c2cc(NC(=O)Nc3ccccc3)ccc2c1Cl [7-(phenylcarbamoylamino)-4-chloro-3-(3-isothiureidopropoxy)isocoumarin] | significant inhibition | significant inhibition | –
11 | – | CC(=O)NC(C(=O)NC(Cc1ccccc1)C(=O)CCl)C(C)C (stereo not drawn) [Ac-Val-Phe-CH2Cl] (Ac-Val-Phe-CH2Cl; configuration not given here) | – | significant inhibition | –
12 | 1.2 | CCOC(=O)C(=O)C(CC)NC(=O)C(CC(C)C)NC(=O)C(C)(C)c1ccccc1 (stereo not drawn) [Ph-(CH3)2 -CO-Leu-Abu-COOEt] | – | – | –
13 | 0.022 | CC[C@H](NC(=O)[C@H](CC(C)C)NC(=O)OCc1ccccc1)C(=O)C(=O)NCCc1ccccc1 [Z-Leu-Abu-CONH-(CH2)2 -Ph, Z-Leu-Abu-CONH-(CH2)2 Ph] | – | – | –
14 | 0.078 | CCC(NC(=O)C(CC(C)C)NC(=O)OCc1ccccc1)C(=O)C(=O)NCCO (stereo not drawn) [Z-Leu-Abu-CONH-(CH2)2 OH] | – | – | –
15 | 0.041 | CC[C@H](NC(=O)[C@H](CC(C)C)NC(=O)OCc1ccccc1)C(=O)C(=O)NCCCN1CCOCC1 [Z-Leu-Abu-CONH-(CH2)3 -Mpl, Z-Leu-Abu-CONH--(CH2)3 -N(CH2 CH2)2 O] | – | – | –
16 | 0.019 | CCCCCCCCNC(=O)C(=O)[C@H](CC)NC(=O)[C@H](CC(C)C)NC(=O)OCc1ccccc1 [Z-Leu-Abu-CONH-(CH2)7 CH3, Z-Leu-Abu-CONH--(CH2)7 CH3] | – | – | –
17 | 0.14 | CCC(NC(=O)C(CC(C)C)NC(=O)OCc1ccccc1)C(=O)C(=O)NCC(C)C (stereo not drawn) [Z-Leu-Abu-CONHiBu, Z-Leu-Abu-CONH-iBu] | – | – | Ki [7]: 4 µM; IC50 [5]: 28 µM; t1/2 plasma [2]: > 1 h; Ki [3]: > 300 µM; Ki [4]: 40 µM
18 | 2.6 | CCOC(=O)C(=O)C(CC)NC(=O)C(CC(C)C)NC(=O)C(CC(C)C)NC(=O)OCc1ccccc1 (stereo not drawn) [Z-Leu-Leu-Abu-COOEt] | significant inhibition | – | Ki [7]: 22 µM; IC50 [5]: 40 µM; Ki [3]: > 100 µM; Ki [4]: 25 µM
19 | 0.024 | CC(C)C[C@H](NC(=O)OCc1ccccc1)C(=O)N[C@@H](Cc1ccccc1)C(=O)C(=O)NCCc1ccccc1 [Z-Leu-Phe-CONH(CH2)2 Ph, Z-Leu-Phe-CONH-(CH2)2 Ph] | – | – | IC50 [5]: 3 µM; t1/2 plasma [2]: > 1 h; Ki [3]: 2 µM
20 | 0.046 | CC(C)C[C@H](NC(=O)OCc1ccccc1)C(=O)N[C@@H](Cc1ccccc1)C(=O)C(=O)NCc1ccccc1 [Z-Leu-Phe-CONHBz, Z-Leu-Phe-CONH-Bzl] | – | – | –
21 | 0.065 | CC(C)CNC(=O)C(=O)[C@H](Cc1ccccc1)NC(=O)[C@H](CC(C)C)NC(=O)OCc1ccccc1 [Z-Leu-Phe-CONHiBu, Z-Leu-Phe-CONH-iBu] | – | – | Ki [7]: 4 µM; IC50 [5]: 22 µM; t1/2 plasma [2]: > 1 h; Ki [3]: 24 µM
22 | – | Z-Leu-Abu | significant inhibition | – | –

Row | Compound | Ki [1] [µM] | inhibition of Calpain within platelets ([5]; 100 μM) | inhibition of spectrin proteolysis in crude brain extracts [6] | also measured
23 | CC[C@H](NC(=O)[C@H](CC(C)C)NC(=O)OCc1ccccc1)C(=O)C(=O)OCc1ccccc1 [Z-Leu-Abu-COOBz, Z-Leu-Abu-CO2 Bzl] | 0.47 | significant inhibition | – | Ki [7]: 4 µM; Ki [8]: 9.5 µM; platelet assay, semi-quantitative ([5]; semi-quantitative, 100 μM): ++; Ki [3]: 40 µM; Ki [4]: > 100 µM
